Experimental data published in article PMC9913351, “Computational Approach to Drug Penetration across the Blood-Brain and Blood-Milk Barrier Using Chromatographic Descriptors” (Cells, 2023).

Legend:
[1] = molecular target: T1, bovine serum albumin BSA (Bos taurus, UniProt P02769); test: NP TLC on silica gel plates impregnated with bovine serum albumin; format: in vitro ADME; settings: for NP/C: Rf from BSA-modified NP plate / Rf from clear one (control)
T1 construct: purchased Sigma Aldrich

[2] = NP TLC on unimpregnated control plate; format: physicochemical; settings: Rf value from unimpregnated NP plate (control); mobile phase pH 7.4
[3] = molecular target: T2, human serum albumin HSA (Homo sapiens, UniProt P02768); test: HPLC on immobilized human serum albumin column (HPLC-HSA); format: in vitro ADME; settings: for log kHSA: logarithm of retention factor, mobile phase pH 7.4; for kHSA: retention factor, acetate buffer pH 7.4/acetonitrile/methanol 85:10:5
T2 construct: 4 × 10 mm
T2 sequence (P02768 25-609): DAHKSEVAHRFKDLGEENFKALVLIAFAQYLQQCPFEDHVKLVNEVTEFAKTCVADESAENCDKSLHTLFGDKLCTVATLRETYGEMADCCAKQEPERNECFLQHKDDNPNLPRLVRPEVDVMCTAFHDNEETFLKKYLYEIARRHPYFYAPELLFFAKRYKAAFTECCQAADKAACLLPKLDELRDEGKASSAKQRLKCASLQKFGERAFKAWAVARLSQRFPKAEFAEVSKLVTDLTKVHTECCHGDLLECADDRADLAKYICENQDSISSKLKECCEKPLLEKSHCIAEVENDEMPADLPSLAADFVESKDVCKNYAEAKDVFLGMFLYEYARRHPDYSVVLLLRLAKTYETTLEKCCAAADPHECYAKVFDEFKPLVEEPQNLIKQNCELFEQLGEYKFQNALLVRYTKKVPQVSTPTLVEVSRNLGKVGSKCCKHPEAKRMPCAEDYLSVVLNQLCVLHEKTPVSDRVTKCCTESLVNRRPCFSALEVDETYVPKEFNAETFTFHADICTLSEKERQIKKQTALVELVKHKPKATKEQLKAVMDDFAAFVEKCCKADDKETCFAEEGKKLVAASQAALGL

[4] = HPLC on immobilized artificial membrane column (HPLC-IAM); format: physicochemical; settings: for log kIAM: logarithm of retention factor, mobile phase pH 7.4; for kIAM: retention factor, phosphate buffer pH 7.4/acetonitrile 80:20
[5] = set-up: method as in earlier work; settings: code describing the acid-base properties; source Chembl; cited from earlier work
[6] = molecular target: T1, bovine serum albumin BSA; test: RP TLC on silanized RP-2 plates impregnated with bovine serum albumin; format: in vitro ADME; settings: for RP: Rf value from RP plate impregnated with 2 mg/mL BSA solution, mobile phase pH 7.4; for RP/C: Rf from BSA-modified RP-2 plate / Rf from clear one (control)
[7] = RP TLC on unimpregnated RP-2 control plate; format: physicochemical; settings: Rf value from unimpregnated RP plate (control); mobile phase pH 7.4
[8] = ratio of drug concentration in milk and plasma; cited from earlier work
[9] = Rf value from NP plate impregnated with 2 mg/mL BSA solution, mobile phase pH 7.4
For a/b/n code in this document: key: (-1) - acids; (0) - neutrals; (1) - bases.

T1 sequence (P02769 25-607): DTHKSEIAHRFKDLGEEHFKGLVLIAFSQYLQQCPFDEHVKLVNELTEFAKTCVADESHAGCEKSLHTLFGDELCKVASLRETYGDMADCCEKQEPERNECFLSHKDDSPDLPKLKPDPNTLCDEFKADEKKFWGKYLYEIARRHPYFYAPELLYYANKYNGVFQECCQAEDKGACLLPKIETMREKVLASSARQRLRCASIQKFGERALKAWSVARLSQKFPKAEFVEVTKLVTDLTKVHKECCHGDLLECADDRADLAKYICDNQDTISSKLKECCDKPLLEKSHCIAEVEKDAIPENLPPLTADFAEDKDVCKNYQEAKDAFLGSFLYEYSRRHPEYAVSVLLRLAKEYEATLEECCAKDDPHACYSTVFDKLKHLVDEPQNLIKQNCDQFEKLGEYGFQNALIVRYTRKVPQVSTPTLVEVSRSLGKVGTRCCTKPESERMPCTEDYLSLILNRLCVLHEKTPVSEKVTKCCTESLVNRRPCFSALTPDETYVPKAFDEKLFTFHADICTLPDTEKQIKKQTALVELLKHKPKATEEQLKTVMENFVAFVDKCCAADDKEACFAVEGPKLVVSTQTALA

Molecule | NP/C [1] | NP [1, 9] | CNP [2] | log kHSA [3] | kHSA [3] | log kIAM [4] | kIAM [4] | a/b/n code [5] | RP [6] | CRP [7] | RP/C [6] | NP ([1]; pH 7.4) | M/P ratio [8]
CCC[C@@H]1C[C@@H](C(=O)N[C@@H]([C@H]2O[C@H](SC)[C@H](O)[C@@H](O)[C@H]2O)[C@@H](C)O)N(C)C1 [lincomycin] | 1.00 | 0.91 | 0.91 | -0.08 | 0.82 | 0.59 | 3.89 | 1 |  |  |  |  | 
NC(=O)N1c2ccccc2CC(=O)c2ccccc21 [oxcarbamazepine] |  | 0.90 | 0.91 | -0.40 | 0.40 | 0.35 | 2.26 |  | 0.91 | 0.91 |  |  | 
CC(=O)Nc1nnc(S(N)(=O)=O)s1 [acetazolamid] |  |  |  | -0.13 | 0.74 |  |  |  | 0.96 | 0.97 |  |  | 
Nc1cc(N2CCCCC2)nc(N)[n+]1[O-] [minoxidil] |  |  |  |  |  | 0.29 | 1.96 |  |  |  |  |  | 
CCCc1cc(=O)[nH]c(=S)[nH]1 [propylthiouracil] |  |  |  |  |  | 0.18 | 1.51 |  |  |  |  |  | 
CCC(C)n1ncn(-c2ccc(N3CCN(c4ccc(OCC5COC(Cn6cncn6)(c6ccc(Cl)cc6Cl)O5)cc4)CC3)cc2)c1=O (stereo not shown) [itraconazole] | 1.01 | 0.97 | 0.96 | 0.98 | 9.65 | 0.79 | 6.15 | 0 | 0.84 | 0.86 | 0.98 |  | 
CC[C@@H](CO)NCCN[C@@H](CC)CO [ethambutol] | 1.11 | 0.21 | 0.19 | 0.24 | 1.73 | 0.34 | 2.18 | 1 | 0.95 | 0.97 | 0.98 |  | 
CN(C)CCCN1c2ccccc2CCc2ccc(Cl)cc21 [clomipramine] |  |  |  |  |  |  | 3.05 |  |  |  |  |  | 
NCC1(CC(=O)O)CCCCC1 [gabapentin] |  |  |  | -0.84 | 0.15 | 0.23 | 1.70 |  |  |  |  |  | 
NS(=O)(=O)c1cc2c(cc1Cl)NCNS2(=O)=O [hydrochlorotiazide] |  |  |  |  |  | 0.30 | 2.01 |  |  |  |  |  | 
CCOC(=O)C1=C(C)NC(C)=C(C(=O)OC)C1c1cccc([N+](=O)[O-])c1 (stereo not shown) [nitrendipine] | 1.00 | 0.97 | 0.97 | 0.55 | 3.55 | 0.47 | 2.98 | 0 | 0.86 | 0.86 | 1.00 |  | 
CC(=O)CC(c1ccccc1)c1c(O)c2ccccc2oc1=O (stereo not shown) [warfarin] |  |  |  |  |  | 0.44 | 2.76 |  |  |  |  |  | 
COc1cc(Cc2cnc(N)nc2N)cc(OC)c1OC [trimethoprim] |  | 0.59 | 0.57 |  |  |  |  |  |  |  |  |  | 
CC(N)C12CC3CC(CC(C3)C1)C2 (stereo not shown) [rimantadine] | 1.00 | 0.92 | 0.92 | -0.80 | 0.16 | 0.28 | 1.91 | 1 | 0.95 | 0.95 | 1.00 |  | 
CN1CCC[C@@H]1Cc1c[nH]c2ccc(CCS(=O)(=O)c3ccccc3)cc12 [eletriptan] |  |  |  | 0.58 | 3.78 | 0.55 | 3.57 | 1 |  |  |  |  | 
CO[C@H]1/C=C/O[C@@]2(C)Oc3c(C)c(O)c4c(O)c(c(/C=N/N5CCN(C)CC5)c(O)c4c3C2=O)NC(=O)/C(C)=C\C=C\[C@H](C)[C@H](O)[C@@H](C)[C@@H](O)[C@@H](C)[C@H](OC(C)=O)[C@@H]1C [rifampicin] |  | 0.77 | 0.73 | -1.53 | 0.03 | 0.92 | 8.37 |  | 0.94 | 0.95 |  |  | 
CC(C)(C)NC[C@H](O)COc1nsnc1N1CCOCC1 [timolol] |  | 0.32 | 0.34 |  | 0.13 |  | 2.88 |  | 0.97 | 0.97 |  |  | 

Molecule | NP/C [1] | NP [1, 9] | CNP [2] | log kHSA [3] | kHSA [3] | log kIAM [4] | kIAM [4] | a/b/n code [5] | RP [6] | CRP [7] | RP/C [6] | NP ([1]; pH 7.4) | M/P ratio [8]
CCC1(c2ccccc2)C(=O)NCNC1=O [primidone] | 1.03 | 0.93 | 0.90 | -0.66 | 0.22 | 0.31 | 2.02 | 0 | 0.97 | 0.93 | 1.04 |  | 
CC[C@@H](C(N)=O)N1CCCC1=O [levetiracetam] | 1.00 | 0.92 | 0.92 | -1.16 | 0.07 | 0.21 | 1.62 | 0 | 0.92 | 0.92 | 1.00 |  | 
CC(C)C[C@H](CN)CC(=O)O [pregabalin] |  |  |  | -0.87 | 0.14 | 0.22 | 1.65 |  |  |  |  |  | 
CN(C)CCCC1(c2ccc(F)cc2)OCc2cc(C#N)ccc21 (stereo not shown) [citalopram] |  |  |  |  |  | 0.50 | 3.14 |  |  |  |  |  | 
CCS(=O)(=O)CCn1c([N+](=O)[O-])cnc1C [tinidazole] |  | 0.88 | 0.89 | -0.92 | 0.12 | 0.30 | 2.00 |  |  |  |  |  | 
COCCCC/C(=N\OCCN)c1ccc(C(F)(F)F)cc1 [fluvoxamine] |  |  | 0.34 |  |  |  |  |  |  |  |  |  | 
CN(C)CCC=C1c2ccccc2CCc2ccccc21 [amitriptyline] | 0.97 | 0.31 | 0.32 | 0.77 | 5.87 |  |  | 1 | 0.63 | 0.67 | 0.94 |  | 
CCCCN1CCCCC1C(=O)Nc1c(C)cccc1C (stereo not shown) [bupivacaine] | 1.00 | 0.67 | 0.67 | 0.07 | 1.18 |  |  | 0 | 0.75 | 0.74 | 1.01 |  | 
CC1COc2c(N3CCN(C)CC3)c(F)cc3c(=O)c(C(=O)O)cn1c23 (stereo not shown) [ofloxacin] |  |  | 0.24 |  |  | 0.49 | 3.07 |  |  |  |  | 0.23 | 
Nc1ccc(O)c(C(=O)O)c1 [mesalazine] |  |  |  | -0.73 | 0.18 | 0.11 | 1.28 | -1 | 0.97 | 0.99 | 0.98 |  | 
gentamycin |  |  | 0.96 |  |  | 0.63 | 4.25 | 1 |  |  |  |  | 
CNCC[C@H](Oc1cccc2ccccc12)c1cccs1 [duloxetine] |  |  |  | 0.91 | 8.16 | 0.45 | 2.84 |  |  |  |  |  | 
CCN(CC)CCCC(C)Nc1ccnc2cc(Cl)ccc12 (stereo not shown) [chloroquine] |  |  |  |  |  | 0.49 |  |  |  |  |  |  | 
C=C[C@H]1C[N@@]2CC[C@H]1C[C@H]2[C@H](O)c1ccnc2ccc(OC)cc12 [quinine] |  |  |  |  |  | 0.49 | 3.06 |  |  |  |  |  | 
CN(C)CCC=C1c2ccccc2COc2ccccc21 [doxepin] | 1.03 | 0.31 | 0.30 | 0.63 | 4.25 | 0.45 | 2.81 | 1 | 0.54 |  | 0.93 |  | 
CN[C@H]1CC[C@@H](c2ccc(Cl)c(Cl)c2)c2ccccc21 [sertraline] |  |  |  |  |  |  |  |  |  |  |  |  | above 1
O=C(c1ccccc1)c1ccc2n1CCC2C(=O)O (stereo not shown) [ketorolac] | 0.99 | 0.91 | 0.92 | 0.98 | 9.65 | 0.38 | 2.39 | -1 | 0.96 | 0.96 | 1.00 |  | 
